Assay results taken from PMC12735951, “A Bioorthogonal TCO–Tetrazine-Based Pretargeted PET/NIRF Platform Enabling High-Contrast Tumor Imaging” (Pharmaceuticals, 2025).

How the values were obtained:
[1] = Partition coefficient (log p), n-octanol/PBS; type: physicochemical
Method: (§1) ^68GaCl3 (5 mL, 20 mCi) and DOTA-Tz (50 μg) were mixed in a reaction vial. The pH was adjusted to 4.0–4.5 by adding 1 M sodium acetate, and the mixture was heated at 95 °C for 15 min without further purification. Radiochemical purity was confirmed by RP-HPLC. In vitro stability of ^68Ga-DOTA-Tz was assessed by incubating aliquots in 50% FBS or 50% PBS at 37 °C for 30 min, 1 h, 2 h, and 4 h. The partition coefficient (log p) was determined by mixing 1 mL of n-octanol with 1 mL of PBS containing the tracer, vortexing, and centrifuging at 3000 rpm for 5 min. Samples (0.1 mL) from both the organic and aqueous phases were withdrawn, and their radioactivity was measured using a γ-counter (PerkinElmer Wizard, Shelton, CT, USA).

[2] = In vitro stability in 50% PBS; type: physicochemical; conditions: 37 °C
Method: as §1

[3] = In vitro stability in 50% fetal bovine serum (FBS); type: in vitro ADME
Method: as §1

HeLa and U87MG xenograft = experiment: In vivo NIR fluorescence imaging, results not split by tumor model (organs, tumor-to-background ratios, retention); design: species or system mice
Method: (§2) To evaluate the tumor-targeting characteristics of DZ-TCO derivatives, DZ-1-TCO, DZ-Lys-TCO, and DZ-Lys-PEG4-TCO were administered to HeLa and U87MG xenograft-bearing nude mice (100 μL of 50 μM, n = 3 per group). In vivo fluorescence imaging was conducted at 4, 24, 48, 72, and 96 h after TCO compound injection.
(§3) Female BALB/c nude mice (4–6 weeks old; 14–20 g), obtained from Beijing Vital River Laboratory Animal Technology Co., Ltd. (Beijing, China), were subcutaneously inoculated with 5 × 10^6 HeLa or U87MG cells suspended in 100 μL PBS into the right flank. Tumor growth was monitored every 2–3 days using digital calipers, and experiments were initiated when tumor volumes reached approximately 150–300 mm^3, calculated using the formula Volume = (length × width^2)/2.
To assess the tumor-targeting capability and clearance kinetics of DZ-TCO precursors, 100 µL of each compound ([…] in PBS) was administered intravenously via the tail vein. Whole-body fluorescence imaging was performed at predetermined time points ([…]) using the IVIS Spectrum imaging system (PerkinElmer, Shelton, CT, USA) (excitation/emission, 745/820 nm) with automatic subtraction of background fluorescence during the acquisition. Fluorescence signals were acquired under standardized exposure settings, and region-of-interest (ROI) analysis was conducted using Living Image software version 4.4 (PerkinElmer) to quantify fluorescence intensity in the tumor and major organs.

HeLa xenograft = experiment: In vivo NIR fluorescence imaging, HeLa xenograft-bearing nude mice
Method: as §2, §3
(§4) To assess the tumor-targeting capability and clearance kinetics of DZ-TCO precursors, 100 µL of each compound ([…] in PBS) was administered intravenously via the tail vein. Whole-body fluorescence imaging was performed at predetermined time points (4, 24, 48, 72, and 96 h post-injection) using the IVIS Spectrum imaging system (PerkinElmer, Shelton, CT, USA) (excitation/emission, 745/820 nm) with automatic subtraction of background fluorescence during the acquisition. Fluorescence signals were acquired under standardized exposure settings, and region-of-interest (ROI) analysis was conducted using Living Image software version 4.4 (PerkinElmer) to quantify fluorescence intensity in the tumor and major organs.

U87MG xenograft = experiment: In vivo NIR fluorescence imaging, U87MG xenograft-bearing nude mice
Method: as §2, §3, §4

SMILES | log p [1] | radiochemical purity in PBS after 4 h [2] [%] | radiochemical purity in FBS at 4 h ([3]; 50% FBS, 37 °C) [%] | radiochemical stability after 4 h ([3]; PBS and serum) [%] | tumor-to-background fluorescence ratio (HeLa and U87MG xenograft; 4 h) | tumor-to-background fluorescence ratio (HeLa and U87MG xenograft; 48 h) | time of peak tumor fluorescence signal (HeLa and U87MG xenograft; post-injection) [h] | tumor fluorescence signal remained detectable (time post-injection) (HeLa and U87MG xenograft; post-injection) | tumor fluorescence intensity (HeLa xenograft; 4 h post-injection) | tumor fluorescence intensity (HeLa xenograft; 24 h post-injection) | tumor fluorescence intensity (HeLa xenograft; 48 h post-injection) | tumor fluorescence intensity (U87MG xenograft; 4 h post-injection) | tumor fluorescence intensity (U87MG xenograft; 24 h post-injection) | tumor fluorescence intensity (U87MG xenograft; 48 h post-injection) | fluorescence signal intensity, kidneys (HeLa and U87MG xenograft; 48 h) | fluorescence signal intensity, liver (HeLa and U87MG xenograft; 48 h) | fluorescence signal intensity, lungs (HeLa and U87MG xenograft; 48 h) | fluorescence signal intensity, spleen (HeLa and U87MG xenograft; 48 h) | fluorescence signal intensity, liver (HeLa and U87MG xenograft; 96 h) | fluorescence in normal tissues (HeLa and U87MG xenograft; 168 h)
Cc1nnc(-c2ccc(OCCOCCOCCOCCNC(=O)CN3CCN(CC(=O)[O-])CCN(CC(=O)[O-])CCN(CC(=O)[O-])CC3)cc2)nn1.[68Ga+3] [^68Ga-DOTA-Me-Tz] | −2.87 ± 0.02 | 94.48 ± 1.48 | 85.88 ± 7.55 | > 85 |  |  |  |  |  |  |  |  |  |  |  |  |  |  |  | 
CC1(C)C(=CC=C2CCCC(C=CC3=[N+](CCCCS(=O)(=O)[O-])c4ccccc4C3(C)C)=C2Cl)N(CCCCCC(=O)NCCCNC(=O)OC2CCC=CCCC2)c2ccccc21 (centres unmarked) [DZ-1-TCO] |  |  |  |  | 695.00 ± 59.15 | 720.00 ± 64.21 | 24 | 72 h | 6.38 × 10^9 p/s/cm^2/sr | 6.93 × 10^9 p/s/cm^2/sr | 5.57 × 10^9 p/s/cm^2/sr | 5.44 × 10^9 p/s/cm^2/sr | 6.12 × 10^9 p/s/cm^2/sr | 4.82 × 10^9 p/s/cm^2/sr |  |  |  |  |  | 
CC1(C)C(=CC=C2CCCC(C=CC3=[N+](CCCCS(=O)(=O)[O-])c4ccccc4C3(C)C)=C2Cl)N(CCCCCC(=O)NCCCCC(N)C(=O)NCCCNC(=O)OC2CCC=CCCC2)c2ccccc21 (centres unmarked) [DZ-Lys-TCO] |  |  |  |  | 368.67 ± 151.28 | 4746.67 ± 100.66 |  | up to 168 h | 2.19 × 10^9 p/s/cm^2/sr | 7.06 × 10^9 p/s/cm^2/sr | 5.43 × 10^9 p/s/cm^2/sr | 5.23 × 10^9 p/s/cm^2/sr | 7.18 × 10^9 p/s/cm^2/sr | 4.30 × 10^9 p/s/cm^2/sr | 3.95 × 10^8 p/s/cm^2/sr | 5.04 × 10^8 p/s/cm^2/sr | 2.02 × 10^8 p/s/cm^2/sr | 8.77 × 10^7 p/s/cm^2/sr | 4.38 × 10^8 p/s/cm^2/sr | nearly undetectable
